# Assay results: ChEMBL document CHEMBL1201862, “PubChem BioAssay data set” (2004)
#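 Cells were grown in 96-well plates and exposed to each compound for 48 hours at five concentrations; endpoints were interpolated linearly between bracketing concentrations, or set to the highest concentration if not reached. GI50 = concentration required for 50% inhibition of growth.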 The source made the active and inactive calls. No stated cut-off is given here; in the data, active = GI50 up to about 1.1 µM and inactive = higher.
# Tests used:
# Assay in all cases: NCI anticancer screen, dose series, 48 h
# SNB-78 = tested on: SNB-78
# SF-539 = tested on: SF-539
# HCT-15 = tested on: HCT-15
# HOP-92 = tested on: HOP-92
# IGROV-1 = tested on: IGROV-1
# SN12C = tested on: SN12C
# SK-OV-3 = tested on: SK-OV-3
# LXFL 529 = tested on: LXFL 529
# U-251 = tested on: U-251
# UO-31 = tested on: UO-31
# SW-620 = tested on: SW-620
# OVCAR-5 = tested on: OVCAR-5
# HCC 2998 = tested on: HCC 2998
# RPMI-8226 = tested on: RPMI-8226
# HOP-18 = tested on: HOP-18
# NCI-H460 = tested on: NCI-H460
# UACC-257 = tested on: UACC-257
# OVCAR-4 = tested on: OVCAR-4
# Malme-3M = tested on: Malme-3M
# 786-0 = tested on: 786-0
# HOP-62 = tested on: HOP-62
# OVCAR-3 = tested on: OVCAR-3
# TK-10 = tested on: TK-10
# SNB-19 = tested on: SNB-19
# ACHN = tested on: ACHN
# MOLT-4 = tested on: MOLT-4
# OVCAR-8 = tested on: OVCAR-8
# NCI-H522 = tested on: NCI-H522
# UACC-62 = tested on: UACC-62
# SF-268 = tested on: SF-268
# A549 = tested on: A549
# M14 = tested on: M14
# SK-MEL-28 = tested on: SK-MEL-28
# SF-295 = tested on: SF-295
# NCI-H23 = tested on: NCI-H23
# NCI-H226 = tested on: NCI-H226
# RXF 393 = tested on: RXF 393
# CCRF-CEM = tested on: CCRF-CEM
# EKVX = tested on: EKVX
# HCT-116 = tested on: HCT-116
# DMS-114 = tested on: DMS-114
# SK-MEL-2 = tested on: SK-MEL-2
# KM12 = tested on: KM12
# SK-MEL-5 = tested on: SK-MEL-5
# LOX IMVI = tested on: LOX IMVI
# HT-29 = tested on: HT-29
# K562 = tested on: K562
# CAKI-1 = tested on: CAKI-1
# HL-60 = tested on: HL-60
# DLD-1 = tested on: DLD-1
# M19-MEL = tested on: M19-MEL
# KM-20L2 = tested on: KM-20L2
smiles,measurement,setting,value
CC1=C(C(=O)CC(=O)C(=O)Nc2cccc(C)c2C)Sc2ccccc2N1,GI50,SNB-78,> 100 µM (inactive)
same,GI50,SF-539,> 100 µM (inactive)
same,GI50,HCT-15,> 100 µM
same,GI50,HOP-92,> 100 µM (inactive)
same,GI50,IGROV-1,> 100 µM (inactive)
same,GI50,SN12C,> 100 µM (inactive)
same,GI50,SK-OV-3,> 100 µM (inactive)
same,GI50,LXFL 529,> 100 µM (inactive)
same,GI50,U-251,> 100 µM (inactive)
same,GI50,UO-31,> 100 µM (inactive)
same,GI50,SW-620,> 100 µM (inactive)
same,GI50,OVCAR-5,> 100 µM (inactive)
same,GI50,HCC 2998,> 100 µM (inactive)
same,GI50,RPMI-8226,> 100 µM (inactive)
same,GI50,HOP-18,> 100 µM (inactive)
same,GI50,NCI-H460,> 100 µM (inactive)
same,GI50,UACC-257,> 100 µM (inactive)
same,GI50,OVCAR-4,> 100 µM (inactive)
same,GI50,Malme-3M,> 100 µM (inactive)
same,GI50,786-0,> 100 µM (inactive)
same,GI50,HOP-62,> 100 µM (inactive)
same,GI50,OVCAR-3,> 100 µM (inactive)
same,GI50,TK-10,> 100 µM (inactive)
same,GI50,SNB-19,> 100 µM (inactive)
same,GI50,ACHN,> 100 µM (inactive)
same,GI50,MOLT-4,> 100 µM (inactive)
same,GI50,OVCAR-8,> 100 µM (inactive)
same,GI50,NCI-H522,> 100 µM (inactive)
same,GI50,UACC-62,> 100 µM (inactive)
same,GI50,SF-268,> 100 µM (inactive)
same,GI50,A549,> 100 µM (inactive)
same,GI50,M14,> 100 µM (inactive)
same,GI50,SK-MEL-28,> 100 µM (inactive)
same,GI50,SF-295,> 100 µM (inactive)
same,GI50,NCI-H23,> 100 µM (inactive)
same,GI50,NCI-H226,> 100 µM (inactive)
same,GI50,RXF 393,> 100 µM (inactive)
same,GI50,CCRF-CEM,> 100 µM (inactive)
same,GI50,EKVX,> 100 µM (inactive)
same,GI50,HCT-116,> 100 µM (inactive)
same,GI50,DMS-114,> 100 µM (inactive)
same,GI50,SK-MEL-2,> 100 µM (inactive)
same,GI50,KM12,> 100 µM (inactive)
same,GI50,SK-MEL-5,> 100 µM (inactive)
same,GI50,LOX IMVI,> 100 µM (inactive)
same,GI50,HT-29,> 100 µM (inactive)
same,GI50,K562,> 100 µM (inactive)
same,GI50,CAKI-1,> 100 µM (inactive)
same,GI50,HL-60,> 100 µM (inactive)
same,GI50,DLD-1,> 100 µM (inactive)
same,GI50,M19-MEL,> 100 µM (inactive)
C/C(=N\NC(=O)c1cccnc1)c1cccc(/C(C)=N/NC(=O)c2cccnc2)n1.CC(=O)[O-].CC(=O)[O-].[Zn+2],GI50,SF-539,1.57 µM (inactive)
same,GI50,HCT-15,2.26 µM
same,GI50,SN12C,4.9 µM (inactive)
same,GI50,SK-OV-3,2.22 µM (inactive)
same,GI50,U-251,1.03 µM (active)
same,GI50,UO-31,2.72 µM (inactive)
same,GI50,SW-620,3.54 µM (inactive)
same,GI50,OVCAR-5,4.13 µM (inactive)
same,GI50,RPMI-8226,6.21 µM (inactive)
same,GI50,NCI-H460,4.31 µM (inactive)
same,GI50,UACC-257,5.41 µM (inactive)
same,GI50,OVCAR-4,0.504 µM (active)
same,GI50,786-0,4.43 µM (inactive)
same,GI50,HOP-62,1.45 µM (inactive)
same,GI50,TK-10,5.65 µM (inactive)
same,GI50,SNB-19,2.86 µM (inactive)
same,GI50,ACHN,1.52 µM (inactive)
same,GI50,OVCAR-8,1.62 µM (inactive)
same,GI50,UACC-62,2.25 µM (inactive)
same,GI50,SF-268,0.668 µM (active)
same,GI50,A549,3.91 µM (inactive)
same,GI50,M14,4.46 µM (inactive)
same,GI50,SF-295,2.74 µM (inactive)
same,GI50,NCI-H23,4.01 µM (inactive)
same,GI50,NCI-H226,2.31 µM (inactive)
same,GI50,RXF 393,3.01 µM (inactive)
same,GI50,EKVX,2.86 µM (inactive)
same,GI50,KM12,3.3 µM (inactive)
same,GI50,LOX IMVI,1.62 µM (inactive)
same,GI50,CAKI-1,2.64 µM (inactive)
same,GI50,DLD-1,1.68 µM (inactive)
same,GI50,M19-MEL,8.45 µM (inactive)
same,GI50,KM-20L2,1.67 µM (inactive)
